{"source": "paper PMC10018702", "about": "(Nature chemistry, 2022)", "key": {"[1]": {"system": "cancer cell proliferation", "conditions": "cited from earlier work"}, "[2]": {"conditions": "mouse, in vivo, ip, 2 mg/kg"}, "[3]": {"system": "Eμ-Myc/+ lymphoma cells", "assay": "Eμ-Myc lymphoma allograft model", "conditions": "1.5 or 2.0 mg/kg, intraperitoneal, 3 times per week"}, "[4]": {"target": "T1, eEF1A ternary complex on human ribosomes (Homo sapiens, UniProt P68104)", "T1 sequence (P68104 1-462)": "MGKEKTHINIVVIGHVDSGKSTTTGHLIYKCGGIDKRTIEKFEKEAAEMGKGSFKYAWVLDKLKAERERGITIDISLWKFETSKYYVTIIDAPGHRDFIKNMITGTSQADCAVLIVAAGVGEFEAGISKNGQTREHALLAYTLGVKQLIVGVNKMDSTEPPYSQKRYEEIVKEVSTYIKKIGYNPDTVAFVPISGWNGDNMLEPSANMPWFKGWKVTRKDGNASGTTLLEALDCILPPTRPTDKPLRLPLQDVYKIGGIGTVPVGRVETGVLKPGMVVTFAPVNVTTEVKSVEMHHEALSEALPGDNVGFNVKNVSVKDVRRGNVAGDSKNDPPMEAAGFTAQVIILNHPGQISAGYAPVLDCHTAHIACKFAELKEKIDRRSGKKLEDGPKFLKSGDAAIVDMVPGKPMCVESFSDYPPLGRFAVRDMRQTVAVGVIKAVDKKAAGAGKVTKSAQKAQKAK", "assay": "smFRET drug chase experiments", "type": "binding"}, "[5]": {"target": "T1, eEF1A ternary complex on human ribosomes", "assay": "smFRET ternary complex real-time delivery experiment", "type": "biochemical", "conditions": "10 μM drug delivered with ternary complex, 25 °C"}, "[6]": {"system": "HCT116 cells", "conditions": "HCT116, 72 h, alamarBlue"}, "[7]": {"system": "HCT116 cells", "assay": "OPP incorporation assay", "conditions": "HCT116, 24 h continuous treatment, then 1-h OPP pulse"}, "[8]": {"target": "eukaryotic elongation factor-1α (eEF1A) (UniProt P68104)", "assay": "single-molecule FRET chase"}, "[9]": {"conditions": "from rebinding constants, chase with 0-10 μM drug"}}, "data": [{"molecule": "C=C[C@H](C)C[C@@H]1NC(=O)[C@H]([C@H](O)C(C)C)N(C)C(=O)[C@H](C)N(C)C(=O)[C@@H]([C@@H](C)CC)NC(=O)[C@@H]([C@H](O)C(C)C)NC(=O)[C@H]2CCCCN2C(=O)[C@H](C)N(C)C1=O", "note": "[A3]", "values": [{"measurement": "concentration inhibiting cancer cell proliferation", "setting": "[1]", "value": "low nanomolar concentrations"}]}, {"molecule": "C=C[C@H](C)C[C@@H]1NC(=O)[C@H]([C@H](O)C(C)C)N(C)C(=O)[C@H](C)N(C)C(=O)[C@@H]([C@@H](C)CC)NC(=O)[C@@H]([C@H](O)C(C)C)NC(=O)[C@H]2CCCCN2C(=O)[C@H](C)N(C)C1=O", "note": "[SR-A3]", "values": [{"measurement": "AUCinf, fold higher than ternatin-4", "setting": "[2]", "value": "~ 2.1 fold"}, {"measurement": "Cmax, fold higher than ternatin-4", "setting": "[2]", "value": "~ 1.7 fold"}, {"measurement": "body weight", "setting": "[3]", "value": "no significant body weight loss"}, {"measurement": "tolerability", "setting": "[3]; both dose groups", "value": "well tolerated"}, {"measurement": "survival of tumor-bearing mice", "setting": "[3]; n = 5 per group", "value": "dramatically prolonged survival"}, {"measurement": "rebinding to stalled eEF1A-ribosome complex relative to SS-A3", "setting": "[4]; [9]", "value": "twice as fast"}, {"measurement": "rebinding to stalled eEF1A-ribosome complex relative to ternatin-4", "setting": "[4]; [9]", "value": "four times as fast"}, {"measurement": "residence time longer than ternatin-4 or SS-A3", "setting": "[4]; washout into drug-free buffer", "value": "about 60%"}, {"measurement": "aa-tRNA accommodation", "setting": "[5]", "value": "strongly inhibited"}]}, {"molecule": "C=C[C@H](C)C[C@@H]1NC(=O)[C@H]([C@@H](O)C(C)C)N(C)C(=O)[C@H](C)N(C)C(=O)[C@@H]([C@@H](C)CC)NC(=O)[C@@H]([C@H](O)C(C)C)NC(=O)[C@H]2CCCCN2C(=O)[C@H](C)N(C)C1=O", "note": "[SS-A3]", "values": [{"measurement": "fold less potent than SR-A3 (HCT116 proliferation IC50)", "setting": "[6]", "value": "~ 3 fold"}, {"measurement": "potency in protein synthesis inhibition compared with SR-A3", "setting": "[7]", "value": "slightly less potent"}, {"measurement": "aa-tRNA accommodation", "setting": "[5]", "value": "strongly inhibited"}]}, {"molecule": "ternatin-4 (peptide)", "values": [{"measurement": "residence time", "setting": "[8]", "value": 56, "unit": "s"}]}, {"molecule": "ternatin-4 [reference compound]", "values": [{"measurement": "potency in protein synthesis inhibition compared with SR-A3", "setting": "[7]", "value": "behaved identically"}, {"measurement": "aa-tRNA accommodation", "setting": "[5]", "value": "strongly inhibited"}]}]}
